As a reminder, the EC50 is the concentration that produces a half-maximal response.

Data set [1] has as its system Escherichia coli. The data set can be described thus: Bactericidal activity against Escherichia coli ATCC 25922 assessed as inhibition of bacterial growth at 1 times MIC measured at 120 mins by time-kill assay. The data set is classed as functional, organism-based.
For data set [2], the system named is Staphylococcus aureus. The experiment in a line: Bactericidal activity against Staphylococcus aureus ATCC 25923 assessed as inhibition of bacterial growth at 2 times MIC measured at 60 mins by time-kill assay. The format is functional, organism-based.
Data set [3] has as its system Escherichia coli. The experiment in a line: Bactericidal activity against Escherichia coli ATCC 25922 assessed as inhibition of bacterial growth at 0.5 to 2 times MIC measured at 90 mins by time-kill assay. The data set is classed as functional, organism-based.
For data set [4], the system named is Escherichia coli. The data set can be described thus: Synergistic antibacterial activity against Escherichia coli ATCC 25922 assessed as fractional inhibitory concentration index incubated for 18 hrs in presence of gentamycin by checkerboard assay. The data set is classed as functional.
The test system of data set [5] is Staphylococcus aureus. The data set can be described thus: Bactericidal activity against Staphylococcus aureus ATCC 25923 assessed as inhibition of bacterial growth at 2 times MIC measured at 120 mins by time-kill assay. The format is functional, organism-based.
Data set [6] deals with Escherichia coli. The data set can be described thus: Synergistic antibacterial activity against Escherichia coli ATCC 25922 assessed as fractional inhibitory concentration index incubated for 18 hrs in presence of rifampicin by checkerboard assay. The data set is classed as functional.
The nature of data set [7]: Acute toxicity in Kunming mouse assessed as survival rate at 20 to 60 mg/kg, ip measured after 4 hrs. The data set is classed as organism-based. To be noted: in vivo, dose 20-60 mg/kg.
The subject of data set [8] is Klebsiella pneumoniae. The experiment in a line: Antibacterial activity against Klebsiella pneumoniae ATCC 700603 infected in BALB/c mouse pneumonia model assessed as reduction in lung bacterial load at 5 to 10 mg/kg, ip measured at 4 to 12 hrs. The data set is classed as functional, organism-based. To be noted: dose 5-10 mg/kg, time 4-12 hrs.
A short description of data set [9]: Hemolytic activity in mouse red blood cells assessed as hemolysis at 256 microg/ml incubated for 1 hr relative to control. The format is toxicity, cell-based, Erythrocyte. To be noted: red blood cells (erythrocytes), at 256 µg/mL, read-out: Activity.
Data set [10] relates to Staphylococcus aureus. The data set can be described thus: Bactericidal activity against Staphylococcus aureus ATCC 25923 assessed as inhibition of bacterial growth at 0.5 to 2 times MIC measured at 180 mins by time-kill assay. The format is functional, organism-based.
For data set [11], the system named is Escherichia coli. The data set can be described thus: Bactericidal activity against Escherichia coli ATCC 25922 assessed as inhibition of bacterial growth at 1 times MIC measured at 180 mins by time-kill assay. The format is functional, organism-based.
For data set [12], the system named is Escherichia coli. The data set can be described thus: Synergistic antibacterial activity against Escherichia coli ATCC 25922 assessed as fractional inhibitory concentration index incubated for 18 hrs in presence of PMB by checkerboard assay. The format is functional.
The test system of data set [13] is Escherichia coli. The data set can be described thus: Antimicrobial activity against Escherichia coli 850 assessed as inhibition of microbial growth incubated for 18 hrs by broth microdilution analysis. As to conditions: Escherichia coli, 850, 18 h. The data set is classed as functional, organism-based. In general terms: In broth dilution the organism is exposed to a series of concentrations in liquid medium.

The test system of data set [14] is Pseudomonas aeruginosa. The data set can be described thus: Antimicrobial activity against Pseudomonas aeruginosa 86 assessed as inhibition of microbial growth incubated for 18 hrs by broth microdilution analysis. The format is functional, organism-based. To be noted: Pseudomonas aeruginosa, 86, 18 h.
The test system of data set [15] is Pseudomonas aeruginosa. The data set can be described thus: Antimicrobial activity against Pseudomonas aeruginosa 124 assessed as inhibition of microbial growth incubated for 18 hrs by broth microdilution analysis. To be noted: Pseudomonas aeruginosa, 124, 18 h. The data set is classed as functional, organism-based.
Data set [16] concerns Klebsiella pneumoniae. The data set can be described thus: Antibacterial activity against Klebsiella pneumoniae ATCC 700603 infected in BALB/c mouse pneumonia model assessed as alveolar expansion at 10 mg/kg, ip measured at 4 to 12 hrs by hematoxylin and eosin staining based analysis. The data set is classed as functional, organism-based. As to conditions: time 4-12 hrs.
The subject of data set [17] is Staphylococcus aureus. The data set can be described thus: Antimicrobial activity against methicillin-resistant Staphylococcus aureus 52 assessed as inhibition of microbial growth incubated for 18 hrs by broth microdilution analysis. The format is functional, organism-based. As to conditions: Staphylococcus aureus, 52, 18 h.
Data set [18] deals with Staphylococcus aureus. The data set can be described thus: Bactericidal activity against Staphylococcus aureus ATCC 25923 assessed as inhibition of bacterial growth at 2 times MIC measured upto 360 mins by time-kill assay. The format is functional, organism-based.
Data set [19] in a line: Acute toxicity in Kunming mouse assessed as survival rate at 20 to 80 mg/kg, ip measured after 4 hrs. The format is organism-based. To be noted: in vivo, dose 20-80 mg/kg.
Data set [20] relates to Escherichia coli. The data set can be described thus: Antimicrobial activity against Escherichia coli 780 assessed as inhibition of microbial growth incubated for 18 hrs by broth microdilution analysis. To be noted: Escherichia coli, 780, 18 h. The format is functional, organism-based.
Data set [21] has as its system Escherichia coli. The experiment in a line: Antimicrobial activity against Escherichia coli ATCC 25922 assessed as reduction in microbial growth measured for 18 hrs in presence of […] microg/ml LPS. The format is functional, organism-based.
Data set [22] concerns Escherichia coli. The experiment in a line: Antimicrobial activity against Escherichia coli 804 assessed as inhibition of microbial growth incubated for 18 hrs by broth microdilution analysis. The format is functional, organism-based. To be noted: Escherichia coli, 804, 18 h.
The subject of data set [23] is Staphylococcus aureus. The experiment in a line: Bactericidal activity against Staphylococcus aureus ATCC 25923 assessed as inhibition of bacterial growth at 2 times MIC measured at 30 mins by time-kill assay. The format is functional, organism-based.
The test system of data set [24] is Pseudomonas aeruginosa. The experiment in a line: Antimicrobial activity against Pseudomonas aeruginosa 119 assessed as inhibition of microbial growth incubated for 18 hrs by broth microdilution analysis. As to conditions: Pseudomonas aeruginosa, 119, 18 h. The format is functional, organism-based.
In data set [25] the test system is Klebsiella pneumoniae. The data set can be described thus: Antibacterial activity against Klebsiella pneumoniae ATCC 700603 infected in BALB/c mouse pneumonia model assessed as reduction in infiltration of inflammatory cells at 10 mg/kg, ip measured at 4 to 12 hrs by hematoxylin and eosin staining based analysis. The data set is classed as functional, organism-based. As to conditions: time 4-12 hrs.

The test system of data set [26] is Staphylococcus aureus. The data set can be described thus: Antimicrobial activity against methicillin-resistant Staphylococcus aureus 936 assessed as inhibition of microbial growth incubated for 18 hrs by broth microdilution analysis. The data set is classed as functional, organism-based. As to conditions: Staphylococcus aureus, 936, 18 h.
Data set [27] relates to Staphylococcus aureus. The data set can be described thus: Antimicrobial activity against methicillin-resistant Staphylococcus aureus 74 assessed as inhibition of microbial growth incubated for 18 hrs by broth microdilution analysis. As to conditions: Staphylococcus aureus, 74, 18 h. The format is functional, organism-based.
In data set [28] the test system is Staphylococcus aureus. The data set can be described thus: Antimicrobial activity against methicillin-resistant Staphylococcus aureus 54 assessed as inhibition of microbial growth incubated for 18 hrs by broth microdilution analysis. The format is functional, organism-based. To be noted: Staphylococcus aureus, 54, 18 h.
The test system of data set [29] is Staphylococcus aureus. The experiment in a line: Antimicrobial activity against methicillin-resistant Staphylococcus aureus 48 assessed as inhibition of microbial growth incubated for 18 hrs by broth microdilution analysis. To be noted: Staphylococcus aureus, 48, 18 h. The format is functional, organism-based.
The nature of data set [30]: Hemolytic activity in mouse red blood cells assessed as hemolysis at 128 microg/ml incubated for 1 hr relative to control. The data set is classed as toxicity, cell-based, Erythrocyte. As to conditions: red blood cells (erythrocytes), read-out: Activity.

Active and inactive are the calls of the source. No cut-off for these calls is given here.

In the case of `CC[C@H](C)[C@@H]1NC(=O)[C@H](CCN)NC(=O)C[C@@H](C(C)C)OC(=O)[C@H]([C@@H](C)O)NC(=O)[C@H](CC(C)C)NC(=O)[C@@H](C(C)C)NC(=O)[C@H](CCN)NC(=O)[C@H](CC(C)C)NC(=O)[C@@H](Cc2ccccc2)NC(=O)[C@H](CCN)NC1=O`, the result in the data set with Escherichia coli [1], in the data set on Staphylococcus aureus [2] and in the data set with Escherichia coli [3] was Active.

As to `CCCCCCC(=O)N[C@@H](CCN)C(=O)N[C@H](C(=O)N[C@@H](CCN)C(=O)N[C@H](Cc1ccccc1)C(=O)N[C@@H](CC(C)C)C(=O)N[C@@H](CCN)C(=O)N[C@@H](C(=O)N[C@@H](CC(C)C)C(=O)N[C@@H](Cc1ccc(O)cc1)C(N)=O)C(C)C)[C@@H](C)CC`, the “fractional inhibitory concentration index (FICI)” value in the data set on Escherichia coli [4] amounted to 0.5; in the data set with Escherichia coli [6] it was 0.312; in the data set with Escherichia coli [12], 0.312. Besides, the result in the data set with Staphylococcus aureus [5], in the data set with Klebsiella pneumoniae [8], in the data set with Staphylococcus aureus [10] and with Escherichia coli [11] was Active. Further, the Activity result in [7] is “Toxic”. In data set [9], the hemolysis at 1 h, 256 µg/mL is below 10%.

Regarding `CCCCCCCC(=O)N[C@@H](CCN)C(=O)N[C@H](C(=O)N[C@@H](CCN)C(=O)N[C@H](Cc1ccccc1)C(=O)N[C@@H](CC(C)C)C(=O)N[C@@H](CCN)C(=O)N[C@@H](C(=O)N[C@@H](CC(C)C)C(=O)N[C@@H](Cc1ccc(O)cc1)C(N)=O)C(C)C)[C@@H](C)CC`, the EC50 in the data set on Escherichia coli [13] came out at 2.42 µg/mL; with Pseudomonas aeruginosa [14] it was 2.08 µg/mL; with Pseudomonas aeruginosa [15], 2.76 µg/mL; in the data set on Staphylococcus aureus [17], 4.46 µg/mL; with Escherichia coli [20], 2.55 µg/mL; in the data set on Escherichia coli [22], 2.36 µg/mL. For the same compound, the EC50 in the data set on Pseudomonas aeruginosa [24] amounted to 2.31 µg/mL; in the data set on Staphylococcus aureus [26], 6.12 µg/mL; with Staphylococcus aureus [27], 5.1 µg/mL; in the data set on Staphylococcus aureus [28], 4.33 µg/mL; with Staphylococcus aureus [29], 5.48 µg/mL. Also, the outcome in the data set on Klebsiella pneumoniae [16], in the data set on Staphylococcus aureus [18], in the data set on Escherichia coli [21], in the data set with Staphylococcus aureus [23], in the data set with Klebsiella pneumoniae [8] and in the data set on Klebsiella pneumoniae [25] was Active. Besides, the result in the data set with Escherichia coli [11] was Active. Further, the Activity entry in [19] is “Toxic”. Also, the hemolysis at 1 h, 128 µg/mL in data set [30] was determined as 10%.
